{
  "source": "patent US5030760A",
  "about": "“Tetrahydrophthalimides, and their production and use” (Sumitomo Chemical Company, Ltd., priority 1981, dated 1991); note: ranges in brackets are in %",
  "settings_in_all_cases": "3 weeks",
  "key": {"[1]": {"system": "monochoria", "assay": "Test Example 7, flooded paddy pot dripping, herbicidal activity", "assay_type": "in vivo, Monochoria vaginalis", "experimental": "(§1) The application of the tetrahydrophthalimides (I) as herbicides will be illustratively shown in the following Examples wherein the phytotoxicity to cultivated plants and the herbicidal activity on weeds were evaluated as follows: the aerial parts of the test plants were cut off and weighed (fresh weight); the percentage of the fresh weight of the treated plant to that of the untreated plant was calculated with the latter fresh weight taken as 100; and the crop damage and the herbicidal activity were evaluated by the standard given in the table below. The rating values of phytotoxicity, 0 and 1, and those of herbicidal effect, 5 and 4, are generally regarded as satisfactory to protect cultivated plants and control weeds, respectively. The rating values in the paddy field test alone were calculated from the dry weight of the test plants.\n(§2) Wagner's pots (1/5000 are) were filled with paddy field soil and water was poured therein to make a flooded condition. Rice seedlings of the 3-leaf stage were transplanted and tubers of slender spikerush and arrowhead and the seeds of barnyardgrass, monochoria and broad-leaved weed were sowed therein and grown for 5 days. When germination occurs, a designed amount of the test compound formulated into an emulsifiable concentrate according to Preparation Example 2 was applied to the pots by dripping. The test plants were grown for a further 3 weeks, and herbicidal activity and phytotoxicity were examined. The herbicidal activity was evaluated in figures ranging from 0 to 5. The phytotoxicity to the crop plants was also indicated on the same standard as that of the herbicidal activity."}, "[2]": {"system": "slender spikerush", "assay": "Test Example 7, flooded paddy pot dripping, herbicidal activity", "assay_type": "in vivo, Eleocharis acicularis", "experimental": "as §1, §2"}, "[3]": {"system": "rice plant", "assay": "Test Example 7, flooded paddy pot dripping, phytotoxicity to rice plant", "assay_type": "in vivo", "experimental": "as §1, §2"}, "[4]": {"system": "broad-leaved weed", "assay": "Test Example 7, flooded paddy pot dripping, herbicidal activity", "assay_type": "in vivo", "experimental": "as §1, §2"}, "[5]": {"system": "arrowhead", "assay": "Test Example 7, flooded paddy pot dripping, herbicidal activity", "assay_type": "in vivo, Sagittaria pygmaea", "experimental": "as §1, §2"}},
  "data": [
    {"compound": "O=C1C2=C(CCCC2)C(=O)N1c1ccc(Cl)cc1F", "note": "[A, 2-fluoro-4-chlorophenyltetrahydrophthalimide, reference compound]", "values": [
      {"measurement": "Herbicidal activity, Monochoria", "setting": "[1]; 2.5 g/are", "result": "4 (70-89)"},
      {"measurement": "Herbicidal activity, Monochoria", "setting": "[1]; 5 g/are", "result": "5 (90-100)"},
      {"measurement": "Herbicidal activity, Monochoria", "setting": "[1]; 10 g/are", "result": "5 (90-100)"},
      {"measurement": "Herbicidal activity, Slender spikerush", "setting": "[2]; 2.5 g/are", "result": "2 (30-49)"},
      {"measurement": "Herbicidal activity, Slender spikerush", "setting": "[2]; 5 g/are", "result": "3 (50-69)"},
      {"measurement": "Herbicidal activity, Slender spikerush", "setting": "[2]; 10 g/are", "result": "4 (70-89)"},
      {"measurement": "Phytotoxicity, Rice plant", "setting": "[3]; 2.5 g/are", "result": "1 (10-29)"},
      {"measurement": "Phytotoxicity, Rice plant", "setting": "[3]; 5 g/are", "result": "1 (10-29)"},
      {"measurement": "Phytotoxicity, Rice plant", "setting": "[3]; 10 g/are", "result": "2 (30-49)"},
      {"measurement": "Herbicidal activity, Broad-leaved weed", "setting": "[4]; 2.5 g/are", "result": "4 (70-89)"},
      {"measurement": "Herbicidal activity, Broad-leaved weed", "setting": "[4]; 5 g/are", "result": "5 (90-100)"},
      {"measurement": "Herbicidal activity, Broad-leaved weed", "setting": "[4]; 10 g/are", "result": "5 (90-100)"},
      {"measurement": "Herbicidal activity, Allowhead", "setting": "[5]; 2.5 g/are", "result": "2 (30-49)"},
      {"measurement": "Herbicidal activity, Allowhead", "setting": "[5]; 5 g/are", "result": "3 (50-69)"},
      {"measurement": "Herbicidal activity, Allowhead", "setting": "[5]; 10 g/are", "result": "3 (50-69)"}
    ]}
  ]
}
